Laboratory results from PMC4015405, “Specificity of the Receptor for the Major Sex Pheromone Component in Heliothis virescens” (Journal of Insect Science, 2013).

Target: T1, Or67d (Or67d^+[1]) (Drosophila melanogaster, UniProt Q9VT92)
T1 construct: native full-length receptor in trichoid T1 sensilla of living flies; with Odorant receptor coreceptor
T1 sequence (Q9VT92 1-391): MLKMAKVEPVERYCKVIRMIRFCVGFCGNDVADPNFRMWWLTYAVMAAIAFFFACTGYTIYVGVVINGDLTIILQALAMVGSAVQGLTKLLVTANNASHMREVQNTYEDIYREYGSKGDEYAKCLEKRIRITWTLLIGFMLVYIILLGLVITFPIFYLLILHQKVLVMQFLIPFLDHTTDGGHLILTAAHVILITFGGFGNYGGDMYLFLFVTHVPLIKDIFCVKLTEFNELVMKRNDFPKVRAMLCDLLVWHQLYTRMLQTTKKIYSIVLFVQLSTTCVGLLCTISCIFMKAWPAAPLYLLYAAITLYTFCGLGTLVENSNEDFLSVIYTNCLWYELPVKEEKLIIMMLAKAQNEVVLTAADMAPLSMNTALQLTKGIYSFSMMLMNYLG
T1 sequence (Q9VNB5 1-486 partner): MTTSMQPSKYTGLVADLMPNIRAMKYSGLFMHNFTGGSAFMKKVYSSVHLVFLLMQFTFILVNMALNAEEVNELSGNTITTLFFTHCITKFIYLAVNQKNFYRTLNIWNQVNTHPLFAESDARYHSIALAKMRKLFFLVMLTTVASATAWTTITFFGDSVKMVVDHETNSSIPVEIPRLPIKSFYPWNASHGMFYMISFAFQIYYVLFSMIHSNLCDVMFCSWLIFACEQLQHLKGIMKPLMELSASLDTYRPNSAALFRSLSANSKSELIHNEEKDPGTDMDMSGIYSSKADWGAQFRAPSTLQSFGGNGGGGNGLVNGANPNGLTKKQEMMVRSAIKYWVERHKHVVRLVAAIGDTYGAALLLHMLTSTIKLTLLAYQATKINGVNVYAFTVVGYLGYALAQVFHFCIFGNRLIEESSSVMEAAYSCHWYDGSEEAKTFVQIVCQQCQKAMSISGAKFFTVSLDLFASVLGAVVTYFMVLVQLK
Experiment: single sensillum recording, Drosophila T1 trichoid sensilla
Assay type: cell-based
Details: 10 μg source dose on filter paper; agonist; n = 7

spikes/sec: 87 ± 15.87 spikes/sec
SMILES: CCCC/C=C\CCCCCCCCCCOC(C)=O [Z11-16:OAc, (Z)-11-hexadecenyl acetate]
